Assay results taken from patent US20230257372A1 (CHONG KUN DANG PHARMACEUTICAL CORP., priority 2020, published 2023).

Tests used:
human recombinant HDAC1 = target: T1, human recombinant HDAC1 (Homo sapiens, UniProt Q13547); test: HDAC1 enzyme activity inhibition (HDAC Fluorimetric Drug Discovery Kit); format: biochemical; details: human recombinant HDAC1; IC50 calculated with GraphPad Prism; read-out: HDAC1
T1 construct: purchased Enzo Life Science, Inc. BML-SE456
How it was run: (§1)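 Fluorescence from a Fluor de Lys developer step (30 minutes) reports residual deacetylation after a 60-minute, 30° C reaction of […] enzyme with 10 μM substrate and 5-fold compound dilutions.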

human recombinant HDAC6 = target: T2, human recombinant HDAC6 (Homo sapiens, UniProt Q9UBN7); test: HDAC6 enzyme activity inhibition (HDAC Fluorimetric Drug Discovery Kit); format: biochemical; details: for HDAC6 selectivity (fold): HDAC1 IC50 / HDAC6 IC50; for IC50: human recombinant HDAC6, IC50 calculated with GraphPad Prism
T2 construct: purchased Calbiochem Inc. 382180
T2 sequence (Q9UBN7 1-1215): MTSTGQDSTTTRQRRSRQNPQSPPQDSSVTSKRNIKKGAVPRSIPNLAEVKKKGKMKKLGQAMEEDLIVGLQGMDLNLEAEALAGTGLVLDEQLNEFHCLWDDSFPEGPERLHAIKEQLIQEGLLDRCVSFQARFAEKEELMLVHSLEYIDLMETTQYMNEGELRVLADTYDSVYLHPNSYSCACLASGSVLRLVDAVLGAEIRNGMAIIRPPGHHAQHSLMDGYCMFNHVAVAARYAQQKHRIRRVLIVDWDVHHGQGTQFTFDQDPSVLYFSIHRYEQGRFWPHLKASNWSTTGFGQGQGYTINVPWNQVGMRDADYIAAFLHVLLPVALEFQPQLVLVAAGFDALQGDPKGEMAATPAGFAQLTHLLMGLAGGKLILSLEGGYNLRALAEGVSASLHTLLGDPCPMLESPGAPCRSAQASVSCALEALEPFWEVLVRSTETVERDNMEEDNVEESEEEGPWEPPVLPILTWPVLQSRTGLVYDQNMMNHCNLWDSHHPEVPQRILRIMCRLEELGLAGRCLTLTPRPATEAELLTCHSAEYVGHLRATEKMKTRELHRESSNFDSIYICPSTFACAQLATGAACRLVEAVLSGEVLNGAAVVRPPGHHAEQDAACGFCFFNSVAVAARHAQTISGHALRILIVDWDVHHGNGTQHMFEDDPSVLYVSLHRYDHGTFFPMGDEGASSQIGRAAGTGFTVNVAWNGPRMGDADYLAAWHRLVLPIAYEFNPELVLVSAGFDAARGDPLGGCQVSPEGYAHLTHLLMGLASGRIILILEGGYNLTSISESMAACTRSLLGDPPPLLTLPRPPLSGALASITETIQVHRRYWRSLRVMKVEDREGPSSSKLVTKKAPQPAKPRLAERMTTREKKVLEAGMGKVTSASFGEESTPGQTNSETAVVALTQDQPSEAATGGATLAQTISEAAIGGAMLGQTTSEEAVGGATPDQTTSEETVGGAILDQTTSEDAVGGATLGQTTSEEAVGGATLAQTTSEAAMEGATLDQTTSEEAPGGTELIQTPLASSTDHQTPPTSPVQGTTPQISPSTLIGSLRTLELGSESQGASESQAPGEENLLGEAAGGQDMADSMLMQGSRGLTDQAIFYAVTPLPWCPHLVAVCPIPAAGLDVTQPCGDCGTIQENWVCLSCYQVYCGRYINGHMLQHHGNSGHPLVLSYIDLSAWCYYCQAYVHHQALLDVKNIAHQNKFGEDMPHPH
How it was run: as §1

[1] = tested on: hippocampal neurons from a Sprague-Dawley (SD) rat fetus; test: Effect of HDAC6-specific inhibitor on axonal transport of mitochondria in amyloid-beta treated neurons; format: cell-based; details: transport velocity of mitochondria in neuronal axon after normalization; vehicle = 100%, amyloid beta treatment group = 0%; compound treatment for three hours
How it was run: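 Rat E17-18 hippocampal neurons exposed to amyloid-beta fragments […]; after 24 h (day 8 in vitro) compound added for 3 h, mitochondria stained with MitoTracker Red CMXRos. Confocal imaging every 1 s for 1 min gave per-mitochondrion velocity, normalized vehicle = 100%, amyloid-beta = 0%.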

T1 sequence (Q13547 whole entry): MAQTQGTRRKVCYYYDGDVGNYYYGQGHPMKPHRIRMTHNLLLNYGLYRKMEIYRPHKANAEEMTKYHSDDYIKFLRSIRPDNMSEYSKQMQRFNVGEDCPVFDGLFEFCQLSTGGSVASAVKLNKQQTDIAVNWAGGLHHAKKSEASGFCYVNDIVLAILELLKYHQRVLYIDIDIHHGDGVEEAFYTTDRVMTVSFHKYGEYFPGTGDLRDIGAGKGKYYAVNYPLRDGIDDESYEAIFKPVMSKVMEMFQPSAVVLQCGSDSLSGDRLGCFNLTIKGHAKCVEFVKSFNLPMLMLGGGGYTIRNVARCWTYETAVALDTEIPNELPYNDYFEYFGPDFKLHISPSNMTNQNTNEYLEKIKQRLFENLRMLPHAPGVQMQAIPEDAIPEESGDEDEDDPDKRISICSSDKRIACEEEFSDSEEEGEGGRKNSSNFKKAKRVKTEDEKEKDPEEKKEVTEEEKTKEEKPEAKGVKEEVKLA

IC50 (human recombinant HDAC1) [µM]	HDAC6 selectivity (fold) (human recombinant HDAC6)	IC50 (human recombinant HDAC6) [µM]	Structure (SMILES)	Velocity distribution (%) [1]
> 50	3125	0.016	Fc1cc(-c2nnc(C(F)F)o2)ccc1Cn1cc(-c2ccc3c(CN4CCOCC4)c[nH]c3c2)nn1 [Compound 4112]	*** (***, >100%)
> 50	3030	0.0165	FC(F)c1nnc(-c2ccc(Cn3cc(-c4ccc5c(CN6CCOCC6)c[nH]c5c4)nn3)cc2)o1 [Compound 4134, 4-((6-(1-(4-(5-(difluoromethyl)-1,3,4-oxadiazol-2-yl)benzyl)-1H-1,2,3-triazol-4-yl)-1H-indol-3-yl)methyl)morpholine]	** (**, 50%˜100%)
> 50	2941	0.0167	Fc1cc(-c2nnc(C(F)F)o2)ccc1Cn1cc(-c2ccc3[nH]ccc3c2)nn1 [Compound 4135, 2-(4-((4-(1H-indol-5-yl)-1H-1,2,3-triazol-1-yl)methyl)-3-fluorophenyl)-5-(difluoromethyl)-1,3,4-oxadiazole]	** (**, 50%˜100%)
> 50	2873	0.0174	CCn1ccc2ccc(-c3cn(Cc4ccc(-c5nnc(C(F)F)o5)cn4)nn3)cc21 [Compound 4136, 2-(difluoromethyl)-5-(6-((4-(1-ethyl-1H-indol-6-yl)-1H-1,2,3-triazol-1-yl)methyl)pyridin-3-yl)-1,3,4-oxadiazole]	** (**, 50%˜100%)
> 50	2252	0.0222	FC(F)c1nnc(-c2ccc(Cn3cc(-c4cncc(Br)c4)nn3)nc2)o1 [Compound 4182, 2-(6-((4-(5-bromopyridin-3-yl)-1H-1,2,3-triazol-1-yl)methyl)pyridin-3-yl)-5-(difluoromethyl)-1,3,4-oxadiazole]	** (**, 50%˜100%)
> 50	729	0.0685	Fc1cc(-c2cn(Cc3ccc(-c4nnc(C(F)F)o4)cn3)nn2)ccn1 [Compound 4185, 2-(difluoromethyl)-5-(6-((4-(2-fluoropyridin-4-yl)-1H-1,2,3-triazol-1-yl)methyl)pyridin-3-yl)-1,3,4-oxadiazole]	*** (***, >100%)
> 50	5617	0.0089	FC(F)c1nnc(-c2ccc(Cn3cc(-c4ccc5[nH]cc(CN6CCOCC6)c5c4)nn3)nc2)o1 [Compound 4187, 4-((5-(1-((5-(5-(difluoromethyl)-1,3,4-oxadiazol-2-yl)pyridin-2-yl)methyl)-1H-1,2,3-triazol-4-yl)-1H-indol-3-yl)methyl)morpholine]	* (*, 0%˜50%)
> 50	1479	0.0338	FC(F)c1nnc(-c2ccc(Cn3cc(-c4ccc5cc[nH]c5c4)cn3)nc2)o1 [Compound 4208]	** (**, 50%˜100%)
> 50	963	0.0519	CC(C)N1CCc2ccc(-c3cn(Cc4ccc(-c5nnc(C(F)F)o5)cn4)nn3)cc2C1 [Compound 4210, 2-(difluoromethyl)-5-(6-((4-(2-isopropyl-1,2,3,4-tetrahydroisoquinolin-7-yl)-1H-1,2,3-triazol-1-yl)methyl)pyridin-3-yl)-1,3,4-oxadiazole]	* (*, 0%˜50%)
> 50	2232	0.0224	FC(F)c1nnc(-c2ccc(Cn3nnc(-c4cccs4)n3)nc2)o1 [Compound 4232, 2-(difluoromethyl)-5-(6-((5-(thiophen-2-yl)-2H-tetrazol-2-yl)methyl)pyridin-3-yl)-1,3,4-oxadiazole]	** (**, 50%˜100%)
> 50	2092	0.0239	Cc1cc2ccc(-c3cn(Cc4ccc(-c5nnc(C(F)F)o5)cn4)nn3)cc2[nH]1 [Compound 4287, 2-(difluoromethyl)-5-(6-((4-(2-methyl-1H-indol-6-yl)-1H-1,2,3-triazol-1-yl)methyl)pyridin-3-yl)-1,3,4-oxadiazole]	*** (***, >100%)
> 50	416	0.012	Cc1cc2cc(-c3cn(Cc4ccc(-c5nnc(C(F)F)o5)cn4)nn3)ccc2[nH]1 [Compound 4289, 2-(difluoromethyl)-5-(6-((4-(2-methyl-1H-indol-5-yl)-1H-1,2,3-triazol-1-yl)methyl)pyridin-3-yl)-1,3,4-oxadiazole]	*** (***, >100%)
> 50	1547	0.0323	CC(C)N1CC(N2CCC(c3cccc(-c4cn(Cc5ccc(-c6nnc(C(F)F)o6)cc5F)nn4)c3)CC2)C1 [Compound 4296]	** (**, 50%˜100%)
> 50	1543	0.0324	CN1CCN(c2cccc(-c3cn(Cc4ccc(-c5nnc(C(F)F)o5)cc4)nn3)c2)CC1 [Compound 4336, 2-(difluoromethyl)-5-(4-((4-(3-(4-methylpiperazin-1-yl)phenyl)-1H-1,2,3-triazol-1-yl)methyl)phenyl)-1,3,4-oxadiazole]	*** (***, >100%)
> 50	2092	0.0239	CN1CCN(c2cccc(-c3cn(Cc4ccc(-c5nnc(C(F)F)o5)cc4F)nn3)c2)CC1 [Compound 4337, 2-(difluoromethyl)-5-(3-fluoro-4-((4-(3-(4-methylpiperazin-1-yl)phenyl)-1H-1,2,3-triazol-1-yl)methyl)phenyl)-1,3,4-oxadiazole]	*** (***, >100%)
> 50	1222	0.0409	FC(F)c1nnc(-c2ccc(Cn3cc(-c4ccc5cn[nH]c5c4)nn3)cc2)o1 [Compound 4341, 2-(4-((4-(1H-indazol-6-yl)-1H-1,2,3-triazol-1-yl)methyl)phenyl)-5-(difluoromethyl)-1,3,4-oxadiazole]	** (**, 50%˜100%)
> 50	1453	0.0344	Fc1cc(-c2nnc(C(F)F)o2)ccc1Cn1cc(-c2ccc3cn[nH]c3c2)nn1 [Compound 4342, 2-(4-((4-(1H-indazol-6-yl)-1H-1,2,3-triazol-1-yl)methyl)-3-fluorophenyl)-5-(difluoromethyl)-1,3,4-oxadiazole]	* (*, 0%˜50%)
> 50	9090	0.0055	FC(F)c1nnc(-c2ccc(Cn3cc(-c4cccc5[nH]ncc45)nn3)nc2)o1 [Compound 4346, 2-(6-((4-(1H-indazol-4-yl)-1H-1,2,3-triazol-1-yl)methyl)pyridin-3-yl)-5-(difluoromethyl)-1,3,4-oxadiazole]	*** (***, >100%)
> 50	6849	0.0073	FC(F)c1nnc(-c2ccc(Cn3cc(-c4cccc5[nH]ncc45)nn3)cc2)o1 [Compound 4347, 2-(4-((4-(1H-indazol-4-yl)-1H-1,2,3-triazol-1-yl)methyl)phenyl)-5-(difluoromethyl)-1,3,4-oxadiazole]	* (*, 0%˜50%)
